This is an account of results in US11076597B2, “High stress resistant plant growth regulator and preparation method and use thereof” (SHANGHAI INSTITUTES FOR BIOLOGICAL SCIENCES, CHINESE …, priority 2015, dated 2021).

The EC50 is the concentration needed to bring the measured effect to its halfway point.

Structures are written as SMILES. Entries after “also recorded” stand apart in the source; their conditions may differ. Read-outs that look alike come from different tables or passages of the source.

Assay [1] addresses T1, PYL7 receptor-HAB1 protein phosphatase complex (Arabidopsis thaliana, UniProt Q1ECF1).
T1 construct: made in house; host or cells: E. coli BL21 (DE3)
T1 sequence (Q1ECF1 1-211): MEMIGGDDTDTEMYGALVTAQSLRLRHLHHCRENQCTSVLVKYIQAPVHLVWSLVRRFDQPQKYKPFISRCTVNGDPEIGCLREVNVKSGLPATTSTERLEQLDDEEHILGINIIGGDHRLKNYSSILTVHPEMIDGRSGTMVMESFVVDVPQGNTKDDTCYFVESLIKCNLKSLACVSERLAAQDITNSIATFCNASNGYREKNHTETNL
T1 sequence (Q9CAJ0 172-511 partner limits assumed): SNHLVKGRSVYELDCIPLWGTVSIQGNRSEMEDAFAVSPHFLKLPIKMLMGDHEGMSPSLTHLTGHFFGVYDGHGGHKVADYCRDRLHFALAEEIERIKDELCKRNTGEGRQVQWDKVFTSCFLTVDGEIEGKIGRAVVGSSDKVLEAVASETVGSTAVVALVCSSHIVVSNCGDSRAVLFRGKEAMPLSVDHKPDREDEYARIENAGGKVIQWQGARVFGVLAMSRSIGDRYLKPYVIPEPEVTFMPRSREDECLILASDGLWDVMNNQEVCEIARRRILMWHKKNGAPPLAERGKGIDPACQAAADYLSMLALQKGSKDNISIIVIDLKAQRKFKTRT
Briefly: AlphaScreen assay: promotion of PYL7 receptor binding to PP2C protein phosphatase HAB1. The source says:
The construction method of recombinant plasmids for the Arabidopsis thaliana genes PYL1 (amino acid sequence 36-211), PYL2 (amino acid sequence 14-188) with dual tags of 6×His and SUMO sequence and the Arabidopsis thaliana gene HAB1 (amino acid sequence 172-511) with the Biotin tag sequence is described in detail in “A gate-latch-lock mechanism for hormone signaling by abscisic acid receptors” (Nature, Vol 462, 2009). The construction method of recombinant plasmids for PYR1 and PYL7 (whole gene coding sequence) and Soybean GmPYL6 and rice OsPYL2 with dual tags of 6×His and SUMO sequence is the same as that for Arabidopsis PYL2.
The above recombinant plasmid is transformed into competent cell of E. coli BL21 (DE3) (purchased from NEB company), and inoculated into 200 ml of LB liquid medium containing Amp resistance (purchased from OXOID company) and cultured overnight at 37° C. at 200 rpm; and inoculated into 2 L of LB liquid medium containing Amp resistance at a ratio of 1:50-1:100 for an extended culture, and cultured at 37° C., 200 rpm for 3-4 hours, and at a low temperature of 16° C. until OD600 is about 0.8-1.0. Recombinant plasmids for PYR1/PYL1/PYL2/PYL7/GmPYL6/OsPYL2 with dual tags of 6×His and SUMO sequence were induced overnight with 100 μM of IPTG while HAB1 recombinant plasmid with the Biotin tag sequence was induced simultaneously with 100 μM of IPTG and 40 μM of biotin.
After 16 hours of induction, the bacterial solution was centrifuged at 4000 rpm for 20 minutes at 4° C. in a low-speed high-capacity centrifuge, and the bacteria cells were collected. Bacteria cells were resuspended in 50 ml of extraction buffer (containing 20 mM Tris, pH 8.0, 200 mM NaCl and 10% (v/v) glycerol) for per 2 L of bacterial solution and then subjected to pressure-breaking at […] and 4° C. for 3-5 times. The broken cells were subjected to ultracentrifugation, centrifuged at 16000 rpm for 30 minutes, and this process was repeated twice. The supernatant was collected and subjected to an affinity chromatography column. […]
In general terms: In Alpha technology, singlet oxygen from a donor bead excites a nearby acceptor bead.

Another assay relates to soybean. The assay can be described thus: Leaf transpiration experiment, soybean. As to conditions: 20 μM spray 14 days after sowing, two days after spraying; FIG. 5. In kind it is in vivo. The method, then: ABA synthesis mutant aba2-1 was used in Arabidopsis leaf transpiration experiment. […] Therefore, this mutant is used to exclude the effect of endogenous ABA on the transpiration experiment. The plants were sprayed with a solution containing 0.05% tween-20 and corresponding concentrations of (+)-ABA/0224/0304/0706/0715/0428 or 0.05% Tween-20 and 0.05% DMSO (control) after three weeks of continuous watering with an amount of 1.2 ml/pot. Leaf transpiration experiments of soybeans were conducted at 26° C. with long-day lighting and soybeans were sprayed with a solution containing 0.1% tween-20 and 20 μM (+)-ABA/0224/0304 compound or 0.1% Tween-20 and 0.05% DMSO (control) 14 days after sowing with an amount of 4 ml/pot; the leaf transpiration experiments of cottons were sprayed with a solution containing 0.1% tween-20 and 20 μM (+)-ABA/0224 compound or 0.1% Tween-20 and 0.05% DMSO, respectively, 25 days after sowing with an amount of 4 ml/pot; the leaf transpiration experiments of wheats were sprayed with a solution containing 0.1% tween-20 and 100 μM (+)-ABA/0224 compound or 0.1% Tween-20 and 0.05% DMSO (control) 18 days after sowing with an amount of 6 ml/pot. Images were taken daily using the FLIR A655sc thermal imager at the same time before and after spraying.
In this experiment, the temperature change of leaf surface was observed and recorded by an infrared camera, thus reflecting the strength of plant transpiration. The stronger the transpiration, the lower the leaf temperature.

Where [2] appears, read: FIG. 2d, 6×His-SUMO-tagged PYL7 (whole coding sequence), Biotin-tagged HAB1 (aa 172-511), 100 nM each, pH 7.4, 1.5 h room temperature, read-out: EC50.

With `CC1=CC(=O)CC(C)(C)[C@@]1(O)/C=C/C(C)=C\C(=O)O` [ABA, Abscisic Acid, reference compound], in assay [1], the EC50 was found to be 1160 nM. In addition, the “leaf temperature versus DMSO control (leaf transpiration)” value in the assay on soybean is given as “had no difference from that in the control group”.
In the case of `CCCN1C(=O)OC(C)c2cc(NS(=O)(=O)Cc3c(F)c(F)c(C)c(F)c3F)ccc21` (stereo not drawn) [Compound 0224], in assay [1] (setting [2]), the EC50 turned out to be 120 nM. For the same compound, the “leaf temperature versus DMSO control (leaf transpiration)” value in the assay on soybean is “significantly reduce the transpiration rate of soybean leaf; also recorded: still significant higher than that of plants in DMSO-sprayed control group”.
The matching figures for `CCCN1C(=O)OC(C)(C)c2cc(NS(=O)(=O)Cc3c(F)c(F)c(C)c(F)c3F)ccc21` [Compound 0304]: 120 nM and “significantly reduce the transpiration rate of soybean leaf; also recorded: still significant higher than that of plants in DMSO-sprayed control group”.
